Measurements as given in ChEMBL document CHEMBL1201861, “Genomics of Drug Sensitity in Cancer screening data, Wellcome Trust Sanger Institute”.

Assays:
Assay in all cases: cells
LC4-1 = type: functional, cell-based, Homo sapiens; conditions: Homo sapiens, LC4-1;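 further: growth inhibition of LC4-1 cells, read out with a cell viability assay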
Description: SANGER: Inhibition of human LC4-1 cell growth in a cell viability assay.

MDA-MB-415 = type: functional, cell-based, Homo sapiens; conditions: Homo sapiens, MDA-MB-415
COLO-680N = type: functional, cell-based, Homo sapiens; conditions: Homo sapiens, COLO-680N;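 further: cell viability assay used to measure inhibition of COLO-680N cell growth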
Description: SANGER: Inhibition of human COLO-680N cell growth in a cell viability assay.

NCI-H1651 = type: functional, cell-based, Homo sapiens; conditions: Homo sapiens, NCI-H1651;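 further: Read-out is a cell viability assay, with IC50 expressing inhibition of NCI-H1651 cell growth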
Description: SANGER: Inhibition of human NCI-H1651 cell growth in a cell viability assay.

HT-3 = type: functional, cell-based, Homo sapiens; conditions: Homo sapiens, HT-3;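 further: growth inhibition measured with a cell viability readout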
Description: SANGER: Inhibition of human HT-3 cell growth in a cell viability assay.

OPM-2 = type: functional, cell-based, Homo sapiens; conditions: Homo sapiens, OPM-2;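 further: growth of OPM-2 cells measured with a viability assay, IC50 for suppression of proliferation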
Description: SANGER: Inhibition of human OPM-2 cell growth in a cell viability assay.

SNU-449 = type: functional, cell-based, Homo sapiens; conditions: Homo sapiens, SNU-449
Description: SANGER: Inhibition of human SNU-449 cell growth in a cell viability assay.

JEG-3 = type: functional, cell-based, Homo sapiens; conditions: Homo sapiens, JEG-3;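 further: growth inhibition of human JEG-3 cells, read out with a cell viability assay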
Description: SANGER: Inhibition of human JEG-3 cell growth in a cell viability assay.

HSC-3 = type: functional, cell-based, Homo sapiens; conditions: Homo sapiens, HSC-3
Description: SANGER: Inhibition of human HSC-3 cell growth in a cell viability assay.

OVCAR-3 = type: functional, cell-based, Homo sapiens; conditions: Homo sapiens, OVCAR-3;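 further: growth inhibition of human OVCAR-3 cells, determined by a cell viability assay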
Description: SANGER: Inhibition of human OVCAR-3 cell growth in a cell viability assay.

TALL-1 = type: functional, cell-based, Homo sapiens; conditions: Homo sapiens, TALL-1;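 further: growth inhibition of cultured human TALL-1 cells, read out by a cell viability assay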
Description: SANGER: Inhibition of human TALL-1 cell growth in a cell viability assay.

H4 = type: functional, cell-based, Homo sapiens; conditions: Homo sapiens, H4
Description: SANGER: Inhibition of human H4 cell growth in a cell viability assay.

647-V = type: functional, cell-based, Homo sapiens; conditions: Homo sapiens, 647-V;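 further: growth inhibition of 647-V cells, read out with a cell viability assay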
Description: SANGER: Inhibition of human 647-V cell growth in a cell viability assay.

NB1 = type: functional, cell-based, Homo sapiens; conditions: Homo sapiens, NB1;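 further: reduction of NB1 cell proliferation, read out with a viability assay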
Description: SANGER: Inhibition of human NB1 cell growth in a cell viability assay.

HMV-2 cell line = type: functional, cell-based, Homo sapiens; conditions: Homo sapiens, HMV-2;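 further: growth inhibition of HMV-II cells, read out with a cell viability assay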
Description: SANGER: Inhibition of human HMV-II cell growth in a cell viability assay.

KP-4 = type: functional, cell-based, Homo sapiens; conditions: Homo sapiens, KP-4;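 further: human KP-4 cells, with growth inhibition read out through a cell viability assay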
Description: SANGER: Inhibition of human KP-4 cell growth in a cell viability assay.

NCI-H1436 = type: functional, cell-based, Homo sapiens; conditions: Homo sapiens, NCI-H1436;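 further: growth suppression of human NCI-H1436 cells, determined with a cell viability readout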
Description: SANGER: Inhibition of human NCI-H1436 cell growth in a cell viability assay.

MEL-JUSO = type: functional, cell-based, Homo sapiens; conditions: Homo sapiens, MEL-JUSO;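 further: growth inhibition of human MEL-JUSO cells, read out with a cell viability assay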
Description: SANGER: Inhibition of human MEL-JUSO cell growth in a cell viability assay.

RPMI-6666 = type: functional, cell-based, Homo sapiens; conditions: Homo sapiens, RPMI-6666
Description: SANGER: Inhibition of human RPMI-6666 cell growth in a cell viability assay.

SIMA = type: functional, cell-based, Homo sapiens; conditions: Homo sapiens, SIMA;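 further: growth inhibition of SIMA cells, measured with a cell viability readout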
Description: SANGER: Inhibition of human SIMA cell growth in a cell viability assay.

A2780 = type: functional, cell-based, Homo sapiens; conditions: Homo sapiens, A2780;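 further: growth inhibition of A2780 cells, read out with a cell viability assay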
Description: SANGER: Inhibition of human A2780 cell growth in a cell viability assay.

NCI-H460 = type: functional, cell-based, Homo sapiens; conditions: Homo sapiens, NCI-H460;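 further: cell viability assay scoring growth inhibition of human NCI-H460 cells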
Description: SANGER: Inhibition of human NCI-H460 cell growth in a cell viability assay.

CWR22R = type: functional, cell-based, Homo sapiens; conditions: Homo sapiens, 22Rv1;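 further: growth inhibition of 22Rv1 cells, read out with a cell viability assay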
Description: SANGER: Inhibition of human 22RV1 cell growth in a cell viability assay.

MKN-1 = type: functional, cell-based, Homo sapiens; conditions: Homo sapiens, MKN-1;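 further: growth inhibition of human MKN1 cells, read out by a cell viability measurement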
Description: SANGER: Inhibition of human MKN1 cell growth in a cell viability assay.

NCI-H810 = type: functional, cell-based, Homo sapiens; conditions: Homo sapiens, NCI-H810;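 further: IC50 reflects inhibition of cancer cell line growth, read out with a cell viability assay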
Description: SANGER: Inhibition of human NCI-H810 cell growth in a cell viability assay.

NCI-H727 = type: functional, cell-based, Homo sapiens; conditions: Homo sapiens, NCI-H727;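 further: growth inhibition of human NCI-H727 cells, read out with a cell viability assay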
Description: SANGER: Inhibition of human NCI-H727 cell growth in a cell viability assay.

EFO-21 = type: functional, cell-based, Homo sapiens; conditions: Homo sapiens, EFO-21;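 further: growth inhibition of EFO-21 cells measured with a viability assay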
Description: SANGER: Inhibition of human EFO-21 cell growth in a cell viability assay.

U2OS = type: functional, cell-based, Homo sapiens, U-2-OS; conditions: Homo sapiens, U2OS;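 further: growth inhibition of human U-2-OS cells, determined with a cell viability assay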
Description: SANGER: Inhibition of human U-2-OS cell growth in a cell viability assay.

RL = type: functional, cell-based, Homo sapiens; conditions: Homo sapiens, RL
Description: SANGER: Inhibition of human RL cell growth in a cell viability assay.

CaR-1 = type: functional, cell-based, Homo sapiens; conditions: Homo sapiens, CaR-1;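 further: growth inhibition of human CaR-1 cancer cells, read out with a cell viability assay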
Description: SANGER: Inhibition of human CaR-1 cell growth in a cell viability assay.

UACC-812 = type: functional, cell-based, Homo sapiens; conditions: Homo sapiens, UACC-812
Description: SANGER: Inhibition of human UACC-812 cell growth in a cell viability assay.

DG-75 = type: functional, cell-based, Homo sapiens; conditions: Homo sapiens, DG-75;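 further: growth inhibition of DG-75 cells, read out with a cell viability assay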
Description: SANGER: Inhibition of human DG-75 cell growth in a cell viability assay.

RO82-W-1 = type: functional, cell-based, Homo sapiens; conditions: Homo sapiens, RO82-W-1;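 further: growth inhibition of human RO82-W-1 cells, measured with a cell viability assay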
Description: SANGER: Inhibition of human RO82-W-1 cell growth in a cell viability assay.

MG-63 = type: functional, cell-based, Homo sapiens; conditions: Homo sapiens, MG-63;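 further: growth inhibition of human MG-63 cells, read out with a cell viability assay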
Description: SANGER: Inhibition of human MG-63 cell growth in a cell viability assay.

HT55 = type: functional, cell-based, Homo sapiens; conditions: Homo sapiens, HT55;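 further: cell viability readout measuring growth inhibition of human HT55 cells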
Description: SANGER: Inhibition of human HT55 cell growth in a cell viability assay.

RVH-421 = type: functional, cell-based, Homo sapiens; conditions: Homo sapiens, RVH-421
Description: SANGER: Inhibition of human RVH-421 cell growth in a cell viability assay.

SW1990 = type: functional, cell-based, Homo sapiens; conditions: Homo sapiens, SW1990;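 further: cell growth inhibition determined with a viability assay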
Description: SANGER: Inhibition of human SW1990 cell growth in a cell viability assay.

G-401 = type: functional, cell-based, Homo sapiens; conditions: Homo sapiens, G-401
Description: SANGER: Inhibition of human G-401 cell growth in a cell viability assay.

CAL-62 = type: functional, cell-based, Homo sapiens; conditions: Homo sapiens, CAL-62;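 further: growth inhibition of CAL-62 cells, read out with a cell viability assay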
Description: SANGER: Inhibition of human CAL-62 cell growth in a cell viability assay.

MC-IXC = type: functional, cell-based, Homo sapiens; conditions: Homo sapiens, MC-IXC;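 further: growth inhibition of MC-IXC cells, read out with a cell viability assay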
Description: SANGER: Inhibition of human MC-IXC cell growth in a cell viability assay.

LCLC-103H cell line = type: functional, cell-based, Homo sapiens; conditions: Homo sapiens, LCLC-103H
Description: SANGER: Inhibition of human LCLC-103H cell growth in a cell viability assay.

NCI-H524 = type: functional, cell-based, Homo sapiens; conditions: Homo sapiens, NCI-H524;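 further: growth inhibition of human NCI-H524 cells, read out through a cell viability assay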
Description: SANGER: Inhibition of human NCI-H524 cell growth in a cell viability assay.

L-540 = type: functional, cell-based, Homo sapiens; conditions: Homo sapiens, L-540;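 further: growth inhibition of the human L-540 cell line, read out with a viability assay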
Description: SANGER: Inhibition of human L-540 cell growth in a cell viability assay.

KYSE-70 cell line = type: functional, cell-based, Homo sapiens; conditions: Homo sapiens, KYSE-70;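 further: cell viability assay read-out, with IC50 expressing suppression of KYSE-70 cell growth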
Description: SANGER: Inhibition of human KYSE-70 cell growth in a cell viability assay.

Daudi = type: functional, cell-based, Homo sapiens; conditions: Homo sapiens, Daudi;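 further: growth inhibition of Daudi cells, read out by a viability assay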
Description: SANGER: Inhibition of human Daudi cell growth in a cell viability assay.

CPC-N = type: functional, cell-based, Homo sapiens; conditions: Homo sapiens, CPC-N;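 further: growth inhibition of CPC-N cells, with a cell viability assay as the readout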
Description: SANGER: Inhibition of human CPC-N cell growth in a cell viability assay.

LK-2 = type: functional, cell-based, Homo sapiens; conditions: Homo sapiens, LK-2;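 further: growth inhibition of LK-2 cells, read out with a viability assay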
Description: SANGER: Inhibition of human LK-2 cell growth in a cell viability assay.

SMILES: Cc1cc([N+](=O)[O-])ccc1NS(=O)(=O)c1cc(Cl)ccc1Cl
- IC50 (LC4-1): 13.7 µM
- IC50 (MDA-MB-415): 4.7 µM
- IC50 (COLO-680N): 12.5 µM
- IC50 (NCI-H1651): 3.94 µM
- IC50 (HT-3): > 32 µM
- IC50 (OPM-2): > 32 µM
- IC50 (SNU-449): 5.94 µM
- IC50 (JEG-3): 4.9 µM
- IC50 (HSC-3): 2.89 µM
- IC50 (OVCAR-3): 5.81 µM
- IC50 (TALL-1): 6.23 µM
- IC50 (H4): 2.59 µM
- IC50 (647-V): 3.09 µM
- IC50 (NB1): 8.38 µM
- IC50 (HMV-2 cell line): 1.54 µM
- IC50 (KP-4): 1.66 µM
- IC50 (NCI-H1436): > 32 µM
- IC50 (MEL-JUSO): 5.17 µM
- IC50 (RPMI-6666): 20.2 µM
- IC50 (SIMA): 13.8 µM
- IC50 (A2780): 5.49 µM
- IC50 (NCI-H460): 3.66 µM
- IC50 (CWR22R): 2.63 µM
- IC50 (MKN-1): 4.21 µM
- IC50 (NCI-H810): 1.25 µM
- IC50 (NCI-H727): 2.03 µM
- IC50 (EFO-21): 11.1 µM
- IC50 (U2OS): > 32 µM
- IC50 (RL): > 32 µM
- IC50 (CaR-1): > 32 µM
- IC50 (UACC-812): > 32 µM
- IC50 (DG-75): > 32 µM
- IC50 (RO82-W-1): > 32 µM
- IC50 (MG-63): 5.96 µM
- IC50 (HT55): > 32 µM
- IC50 (RVH-421): 0.931 µM
- IC50 (SW1990): 5.38 µM
- IC50 (G-401): 0.861 µM
- IC50 (CAL-62): 2.65 µM
- IC50 (MC-IXC): 2.51 µM
- IC50 (LCLC-103H cell line): 5.6 µM
- IC50 (NCI-H524): 12.5 µM
- IC50 (L-540): 9.46 µM
- IC50 (KYSE-70 cell line): 0.812 µM
- IC50 (Daudi): 1.25 µM
- IC50 (CPC-N): > 32 µM
- IC50 (LK-2): 0.928 µM

SMILES: Oc1ccc2ccccc2c1SSc1c(O)ccc2ccccc12
- IC50 (LC4-1): > 32 µM
- IC50 (MDA-MB-415): > 32 µM
- IC50 (COLO-680N): > 32 µM
- IC50 (NCI-H1651): > 32 µM
- IC50 (HT-3): > 32 µM
- IC50 (OPM-2): > 32 µM
- IC50 (SNU-449): > 32 µM
- IC50 (JEG-3): > 32 µM
- IC50 (HSC-3): > 32 µM
- IC50 (OVCAR-3): > 32 µM
- IC50 (TALL-1): > 32 µM
- IC50 (H4): > 32 µM
- IC50 (647-V): > 32 µM
- IC50 (NB1): 21.9 µM
- IC50 (HMV-2 cell line): > 32 µM
- IC50 (KP-4): > 32 µM
- IC50 (NCI-H1436): > 32 µM
- IC50 (MEL-JUSO): > 32 µM
- IC50 (RPMI-6666): > 32 µM
- IC50 (SIMA): > 32 µM
- IC50 (A2780): 28.4 µM
- IC50 (NCI-H460): > 32 µM
- IC50 (CWR22R): > 32 µM
- IC50 (MKN-1): > 32 µM
- IC50 (NCI-H810): > 32 µM
- IC50 (NCI-H727): 19.7 µM
- IC50 (EFO-21): > 32 µM
- IC50 (U2OS): > 32 µM
- IC50 (RL): > 32 µM
- IC50 (CaR-1): > 32 µM
- IC50 (UACC-812): > 32 µM
- IC50 (DG-75): > 32 µM
- IC50 (RO82-W-1): > 32 µM
- IC50 (MG-63): > 32 µM
- IC50 (HT55): > 32 µM
- IC50 (RVH-421): > 32 µM
- IC50 (SW1990): > 32 µM
- IC50 (G-401): 7.53 µM
- IC50 (CAL-62): > 32 µM
- IC50 (MC-IXC): > 32 µM
- IC50 (LCLC-103H cell line): 18.5 µM
- IC50 (NCI-H524): > 32 µM
- IC50 (L-540): > 32 µM
- IC50 (KYSE-70 cell line): > 32 µM
- IC50 (Daudi): 5.68 µM
- IC50 (CPC-N): > 32 µM
- IC50 (LK-2): 29.2 µM
